Our source for the activity change, negative = inhibition values is PubChem BioAssay AID624376 (Broad Institute, 2012).

Inconclusive results are not listed. Activity calls are given as the source filed them. No rule for the calls is given here.

One assay can be described thus: LMP1-driven NF-kB reporter inhibition, dose response, cell-based, luciferase reporter, luminescence, dry powder, set 2 (AID 624376). The note with it: LMP1-induced NF-kappaB luciferase reporter cells, luminescence; at 30 µM (top of the series).
For `C[C@H](NC(=O)C[C@@H]1C=C[C@H](NC(=O)Cc2ccccn2)[C@H](CO)O1)c1ccccc1`, the activity change, negative = inhibition is -8.89% (inactive).

In the case of `Cc1noc(C)c1S(=O)(=O)Nc1ccc2c(c1)C(=O)N([C@@H](C)CO)C[C@H](C)[C@H](CN(C)Cc1ccc(C(F)(F)F)cc1)OCCCC[C@@H](C)O2`, the activity change, negative = inhibition was 2.6% (inactive).

Still in this assay, the particulars now being: LMP1-induced NF-kappaB luciferase reporter cells, luminescence; at 35 µM (top of the series).
For the compound `O=C(C[C@@H]1C[C@@H]2c3cc(NS(=O)(=O)c4ccc(F)cc4)ccc3O[C@@H]2[C@H](CO)O1)NC1CCCCC1`, the activity change, negative = inhibition was 7.3% (inactive).

As to `C[C@@H]1CN([C@H](C)CO)C(=O)Cc2cc(NC(=O)Cc3ccccc3)ccc2O[C@H]1CN(C)Cc1ccc(C(F)(F)F)cc1`, the activity change, negative = inhibition was -5.26% (inactive).

In the case of `CS(=O)(=O)Nc1ccc2c(c1)[C@H]1C[C@@H](CC(=O)NCC3CC3)O[C@@H](CO)[C@H]1O2`, the activity change, negative = inhibition was 5.22% (inactive).

As for `Cc1noc(C)c1S(=O)(=O)Nc1ccc2c(c1)C(=O)N([C@@H](C)CO)C[C@@H](C)[C@@H](CN(C)Cc1ccc(C(F)(F)F)cc1)OCCCC[C@H](C)O2`, the activity change, negative = inhibition is 13% (inactive).

As to `C[C@@H]1CN([C@@H](C)CO)C(=O)c2c(c3ccccc3n2C)-c2ccccc2CO[C@@H]1CN(C)C(=O)Nc1ccc(F)cc1`, the activity change, negative = inhibition was 6.54% (inactive).

`C[C@H]1CN([C@@H](C)CO)C(=O)Cc2cc(NC(=O)Cc3ccccc3)ccc2O[C@H]1CN(C)Cc1ccc(C(F)(F)F)cc1`: the activity change, negative = inhibition was 18.5% (inactive).

Consider `C[C@@H](NC(=O)C[C@@H]1C=C[C@@H](NC(=O)Cc2ccccn2)[C@@H](CO)O1)c1ccccc1`, for which the activity change, negative = inhibition is -0.171% (inactive).

With `C[C@@H](NC(=O)C[C@H]1C[C@@H]2c3cc(NC(=O)c4cccnc4)ccc3O[C@@H]2[C@@H](CO)O1)c1ccccc1`, the activity change, negative = inhibition was 6.76% (inactive).

`COC(=O)C[C@@H]1C[C@@H]2c3cc(NC(=O)CN(C)C)ccc3O[C@@H]2[C@@H](CO)O1`: the activity change, negative = inhibition is -4.49% (inactive).

Take `C[C@H]1CN([C@@H](C)CO)C(=O)Cc2cc(NC(=O)Cc3ccccc3)ccc2O[C@@H]1CN(C)Cc1ccc(C(F)(F)F)cc1`: the activity change, negative = inhibition was -3.24% (inactive).

On to `C[C@H](NC(=O)C[C@H]1C=C[C@H](NC(=O)Cc2ccccn2)[C@H](CO)O1)c1ccccc1`, for which the activity change, negative = inhibition was 3.9% (inactive).

As for `C[C@H](CO)N1C[C@H](C)[C@@H](CN(C)Cc2ccc(C(F)(F)F)cc2)Oc2ccc(NC(=O)Cc3ccccc3)cc2CC1=O`, the activity change, negative = inhibition is 17.6% (inactive).

Regarding `C[C@@H]1CN([C@@H](C)CO)C(=O)Cc2cc(NC(=O)Cc3ccccc3)ccc2O[C@@H]1CN(C)Cc1ccc(C(F)(F)F)cc1`, the activity change, negative = inhibition is 5.83% (inactive).

Take `Cc1noc(C)c1S(=O)(=O)Nc1ccc2c(c1)C(=O)N([C@H](C)CO)C[C@H](C)[C@H](CN(C)Cc1ccc(C(F)(F)F)cc1)OCCCC[C@@H](C)O2`: the activity change, negative = inhibition was 16.1% (inactive).

Turning to `O=C(Cc1ccccn1)NCC[C@@H]1CC[C@H](NC(=O)Nc2ccc(Cl)cc2)[C@H](CO)O1`, the activity change, negative = inhibition was -9.97% (inactive).

Regarding `Cc1noc(C)c1S(=O)(=O)Nc1ccc2c(c1)C(=O)N([C@H](C)CO)C[C@@H](C)[C@H](CN(C)Cc1ccc(C(F)(F)F)cc1)OCCCC[C@@H](C)O2`, the activity change, negative = inhibition is -6% (inactive).

For the compound `CC(C)(C)[S@@](=O)N1Cc2cc(C(=O)NCCc3ccncc3)nc(-c3cccc(-c4cccnc4)c3)c2[C@H]1CCO`, the activity change, negative = inhibition is -10.1% (inactive).

Take `Cc1noc(C)c1S(=O)(=O)Nc1ccc2c(c1)C(=O)N([C@H](C)CO)C[C@@H](C)[C@@H](CN(C)Cc1ccc(C(F)(F)F)cc1)OCCCC[C@@H](C)O2`: the activity change, negative = inhibition is -6.08% (inactive).

In the case of `C[C@@H]1CN([C@H](C)CO)C(=O)c2c(c3ccccc3n2C)-c2ccccc2CO[C@H]1CN(C)C(=O)Nc1ccc(F)cc1`, the activity change, negative = inhibition was -0.608% (inactive).

With `C[C@H](NC(=O)C[C@H]1C=C[C@@H](NC(=O)Cc2ccccn2)[C@H](CO)O1)c1ccccc1`, the activity change, negative = inhibition was 0.463% (inactive).

For `C[C@H](NC(=O)C[C@@H]1C=C[C@H](NC(=O)Cc2ccccn2)[C@@H](CO)O1)c1ccccc1`, the activity change, negative = inhibition is 5.95% (inactive).

In the case of `Cc1noc(C)c1S(=O)(=O)Nc1ccc2c(c1)C(=O)N([C@@H](C)CO)C[C@@H](C)[C@@H](CN(C)Cc1ccc(C(F)(F)F)cc1)OCCCC[C@@H](C)O2`, the activity change, negative = inhibition is -7.77% (inactive).

For the compound `C[C@H](NC(=O)C[C@H]1C=C[C@@H](NC(=O)Cc2ccccn2)[C@@H](CO)O1)c1ccccc1`, the activity change, negative = inhibition is -0.671% (inactive).

For `C[C@H]1CN([C@@H](C)CO)C(=O)c2c(c3ccccc3n2C)-c2ccccc2CO[C@H]1CN(C)C(=O)Nc1ccc(F)cc1`, the activity change, negative = inhibition is 1.49% (inactive).

In the case of `C[C@@H](NC(=O)C[C@H]1C=C[C@H](NC(=O)Cc2ccccn2)[C@H](CO)O1)c1ccccc1`, the activity change, negative = inhibition was -2.05% (inactive).

As for `O=C(C[C@@H]1C[C@H]2c3cc(NS(=O)(=O)c4ccc(F)cc4)ccc3O[C@H]2[C@@H](CO)O1)NC1CCCCC1`, the activity change, negative = inhibition was 2.38% (inactive).

Regarding `Cc1noc(C)c1S(=O)(=O)Nc1ccc2c(c1)C(=O)N([C@H](C)CO)C[C@@H](C)[C@H](CN(C)Cc1ccc(C(F)(F)F)cc1)OCCCC[C@H](C)O2`, the activity change, negative = inhibition was -0.786% (inactive).

As for `C[C@@H]1CN([C@@H](C)CO)C(=O)c2c(c3ccccc3n2C)-c2ccccc2CO[C@H]1CN(C)C(=O)Nc1ccc(F)cc1`, the activity change, negative = inhibition is -7.17% (inactive).

Take `C[C@H](NC(=O)C[C@@H]1C=C[C@@H](NC(=O)Cc2ccccn2)[C@@H](CO)O1)c1ccccc1`: the activity change, negative = inhibition is 2.64% (inactive).

In the case of `C[C@H](NC(=O)C[C@@H]1C=C[C@@H](NC(=O)Cc2ccccn2)[C@H](CO)O1)c1ccccc1`, the activity change, negative = inhibition was 4.21% (inactive).

In the case of `COc1ccccc1CNC(=O)C[C@H]1C[C@@H]2c3cc(NC(=O)CN(C)C)ccc3O[C@@H]2[C@@H](CO)O1`, the activity change, negative = inhibition is -6.3% (inactive).

Regarding `O=C(Cc1ccccn1)NCC[C@@H]1CC[C@@H](NC(=O)Nc2ccc(Cl)cc2)[C@H](CO)O1`, the activity change, negative = inhibition is 0.177% (inactive).

Turning to `CN(C)c1ccc2c(c1)[C@@H]1C[C@@H](CC(=O)NCc3ccc(Oc4ccccc4)cc3)O[C@@H](CO)[C@@H]1O2`, the activity change, negative = inhibition was -26.2% (inactive).

In the case of `Cc1noc(C)c1S(=O)(=O)Nc1ccc2c(c1)C(=O)N([C@H](C)CO)C[C@@H](C)[C@@H](CN(C)Cc1ccc(C(F)(F)F)cc1)OCCCC[C@H](C)O2`, the activity change, negative = inhibition was 16.2% (inactive).

In the case of `C[C@@H](NC(=O)C[C@@H]1C=C[C@H](NC(=O)Cc2ccccn2)[C@@H](CO)O1)c1ccccc1`, the activity change, negative = inhibition was -7.31% (inactive).

For the compound `O=C(Cc1ccccn1)NCC[C@H]1CC[C@@H](NC(=O)Nc2ccc(Cl)cc2)[C@H](CO)O1`, the activity change, negative = inhibition was -2.95% (inactive).

For the compound `CO[C@H]1CN(C)C(=O)c2ccc(NC(=O)C3CC3)cc2OC[C@H](C)N(C(=O)c2ccccn2)C[C@H]1C`, the activity change, negative = inhibition was -14.8% (inactive).

As to `COc1cccc(S(=O)(=O)N(C)C[C@H]2Oc3cc(C4=CCCCC4)ccc3S(=O)(=O)N([C@H](C)CO)C[C@H]2C)c1`, the activity change, negative = inhibition was -4.73% (inactive).

As for `COc1ccccc1C(=O)Nc1ccc2c(c1)C(=O)N(C)[C@@H]1CC[C@H](CC(=O)NCCc3ccncc3)O[C@H]1CO2`, the activity change, negative = inhibition is -9.84% (inactive).

In the case of `O=C(C[C@H]1C[C@@H]2c3cc(NS(=O)(=O)c4ccc(F)cc4)ccc3O[C@@H]2[C@H](CO)O1)NC1CCCCC1`, the activity change, negative = inhibition was -0.993% (inactive).

Regarding `C[C@@H](NC(=O)C[C@H]1C=C[C@@H](NC(=O)Cc2ccccn2)[C@@H](CO)O1)c1ccccc1`, the activity change, negative = inhibition was -14% (inactive).

With `C[C@@H](NC(=O)C[C@@H]1C=C[C@H](NC(=O)Cc2ccccn2)[C@H](CO)O1)c1ccccc1`, the activity change, negative = inhibition is 1.6% (inactive).

With `COc1cccc(S(=O)(=O)N(C)C[C@@H]2Oc3cc(C4=CCCCC4)ccc3S(=O)(=O)N([C@@H](C)CO)C[C@H]2C)c1`, the activity change, negative = inhibition was 4.81% (inactive).

In the case of `CO[C@@H]1CN(C)C(=O)c2ccc(NC(C)=O)cc2OC[C@@H](C)N(Cc2ccccc2F)C[C@H]1C`, the activity change, negative = inhibition is 0.725% (inactive).

As to `C[C@@H](NC(=O)C[C@@H]1C=C[C@@H](NC(=O)Cc2ccccn2)[C@H](CO)O1)c1ccccc1`, the activity change, negative = inhibition is -0.374% (inactive).

Turning to `C[C@H](CO)N1C[C@H](C)[C@H](CN(C)Cc2ccc(C(F)(F)F)cc2)Oc2ccc(NC(=O)Cc3ccccc3)cc2CC1=O`, the activity change, negative = inhibition was 3.81% (inactive).

Turning to `O=C(Cc1ccccn1)NCC[C@@H]1CC[C@@H](NC(=O)Nc2ccc(Cl)cc2)[C@@H](CO)O1`, the activity change, negative = inhibition is -0.581% (inactive).

With `O=C(Cc1ccccn1)NCC[C@H]1CC[C@H](NC(=O)Nc2ccc(Cl)cc2)[C@@H](CO)O1`, the activity change, negative = inhibition was 4.16% (inactive).

Consider `Cc1noc(C)c1S(=O)(=O)Nc1ccc2c(c1)C(=O)N([C@H](C)CO)C[C@H](C)[C@@H](CN(C)Cc1ccc(C(F)(F)F)cc1)OCCCC[C@@H](C)O2`, for which the activity change, negative = inhibition was -11.7% (inactive).

Turning to `O=C(Cc1ccccn1)NCC[C@H]1CC[C@@H](NC(=O)Nc2ccc(Cl)cc2)[C@@H](CO)O1`, the activity change, negative = inhibition was 0.728% (inactive).

For the compound `O=C(C[C@@H]1C[C@@H]2c3cc(NC(=O)c4cccnc4)ccc3O[C@@H]2[C@H](CO)O1)NCC(F)(F)F`, the activity change, negative = inhibition is -8.21% (inactive).

Turning to `CS(=O)(=O)Nc1ccc2c(c1)[C@@H]1C[C@H](CC(=O)NCC3CC3)O[C@H](CO)[C@@H]1O2`, the activity change, negative = inhibition is -9.8% (inactive).

Turning to `C[C@@H]1CN([C@H](C)CO)C(=O)c2c(c3ccccc3n2C)-c2ccccc2CO[C@@H]1CN(C)C(=O)Nc1ccc(F)cc1`, the activity change, negative = inhibition is 3.49% (inactive).
